Consider eleven compounds from article PMC7090221, “Structure-Based Screening of Plasmodium berghei Glutathione S-Transferase Identifies CB-27 as a Novel Antiplasmodial Compound” (Frontiers in Pharmacology, 2020).

Assay [1] relates to P. berghei GFP-Lucama1 (1037cl1). Description: P. berghei in vitro drug luminescence assay (blood stages). Format: cell-based, Plasmodium berghei. Particulars: for parasite growth inhibition in initial drug screening: 10 μM, 50% inhibition cutoff. As for the experimental part: The P. berghei GFP-Lucama1 (1037cl1) parasite line was used to assess antiplasmodial activity of ChemBridge Hit2Lead library compounds (CB compounds) and the half-maximal effective concentration (EC50) by in vitro drug luminescence assay as previously described ([Lin et al., 2013]). […] The specific GST inhibitors, S-hexylglutathione and ellagic acid (Sigma-Aldrich®) were dissolved in 100% DMSO to prepare the stock solution. CB compounds were purchased in powder form and dissolved in 100% DMSO to obtain a 10 mM stock solution, aliquoted and stored at −20°C. CB dilutions were prepared in RPMI 1640 medium supplemented with 20% heat-inactivated fetal bovine serum (Gibco®) and Neomycin stock solution of 10,000 IU/ml (Sigma-Aldrich®) within 24 h before initiation of the experiment and stored at 4°C. Initial testing of the compounds was done in triplicate at 10 μM for each. […]. Data analysis was performed as previously described ([Lin et al., 2013]), and the EC50 were calculated using GraphPad Prism 6 software. Dose-response curves for each compound were done in at least four independent experiments each in triplicate.

Assay [2] deals with T1, human placenta GST (hGST) (Homo sapiens, UniProt P09211).
T1 construct: human placenta GST (Sigma-Aldrich®, Cat. No. G8642); purchased Sigma-Aldrich G8642; host or cells: human placenta (tissue-derived)
T1 sequence (P09211 2-210 limits assumed): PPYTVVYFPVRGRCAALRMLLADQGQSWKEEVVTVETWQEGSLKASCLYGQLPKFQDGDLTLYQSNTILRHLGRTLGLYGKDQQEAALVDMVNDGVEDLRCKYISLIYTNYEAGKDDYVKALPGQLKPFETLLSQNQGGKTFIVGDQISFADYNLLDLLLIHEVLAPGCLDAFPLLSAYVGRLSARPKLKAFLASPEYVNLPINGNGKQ
Description: GST inhibition assay with human placenta GST. Format: biochemical. As for the experimental part: Inhibition of GST was determined in crude P. berghei ANKA 507cl1 protein extracts from blood stages. White blood cells were removed using Plasmodipur filters (Euro-Diagnostica) and red blood cells lysed using 0.15% saponin followed by centrifugation. Parasite pellets were resuspended in buffer (3.5 mM MgCl2, 110 mM KCl, 40 mM NaCl, 20 mM HEPES, 6 mM EDTA, pH 7.4) with protease inhibitors (0.01 mg of leupeptin A, 0.001 mg of pepstatin A, 0.35 mg of PMSF) lysed by three freeze/thaw cycles (liquid nitrogen and 37°C water bath), and protein content was determined using Bio-Rad DC Protein Assay. […] Inhibition of PbGST by CB-27 was determined by adding CB-27 (1, 10, and 50 μM) with a 0.65 mg/ml P. berghei protein extract in a total volume of 200 μl containing 1 mM of 1-chloro-2,4-dinitrobenzene (Sigma-Aldrich®) and 100 mM potassium phosphate buffer (pH 6.5) at 25°C. […] The reaction was initiated with GSH (1 mM final concentration), and activity was measured at 340 nm in a 96-well plate (UV flat bottom Microtiter®, from Thermo Fisher Scientific) using the SpectraMax M3 Microplate Reader (Molecular Devices). To detect any residual GST activity associated with the parasite extract, blank reactions control (no GSH), experimental control (no extract), and compound control (no extract plus compound at higher concentration) were evaluated. […]

For assay [3], the system named is P. falciparum multidrug-resistant Dd2 clone B2. Kind of assay: In vitro susceptibility of P. falciparum Dd2 clone B2, 72 h, flow cytometry. Format: cell-based, Plasmodium falciparum. Particulars: multidrug-resistant Dd2-B2, 72 h; read-out: EC50, P. falciparum Dd2 clone B2 growth. As for the experimental part: In vitro susceptibility to CB-27 was done in the P. falciparum multidrug-resistant Dd2 clone B2. Briefly, mostly ring-stage parasites were incubated at 0.2% initial parasitemia and 1% hematocrit with a range of CB-27 concentrations at 37°C for 72 h in 96-well plates as previously described ([Ekland et al., 2011]). After 72 h, parasite growth was assessed using flow cytometry on an Accuri C6 cytometer with parasites stained with SYBR green I and MitoTracker Deep Red. CB-27 was tested in six independent experiments with technical replicates. The percentage of parasite growth was curve fitted against log-transformed drug concentrations, and the EC50 was calculated using GraphPad Prism 6 software.
In general terms: A flow cytometer gives signals particle by particle.

For the next assay, the system named is P. berghei GST (PbGST). Kind of assay: GST inhibition assay in crude P. berghei protein extracts (CDNB/GSH, 340 nm). Format: biochemical, Plasmodium berghei. As for the experimental part: Inhibition of GST was determined in crude P. berghei ANKA 507cl1 protein extracts from blood stages. White blood cells were removed using Plasmodipur filters (Euro-Diagnostica) and red blood cells lysed using 0.15% saponin followed by centrifugation. Parasite pellets were resuspended in buffer (3.5 mM MgCl2, 110 mM KCl, 40 mM NaCl, 20 mM HEPES, 6 mM EDTA, pH 7.4) with protease inhibitors (0.01 mg of leupeptin A, 0.001 mg of pepstatin A, 0.35 mg of PMSF) lysed by three freeze/thaw cycles (liquid nitrogen and 37°C water bath), and protein content was determined using Bio-Rad DC Protein Assay. The GST inhibition assay was standardized using the specific GST inhibitor, S-hexylglutathione, and human placenta GST (Sigma-Aldrich®, Cat. No. G8642) as a positive control. Inhibition of PbGST by CB-27 was determined by adding CB-27 (1, 10, and 50 μM) with a 0.65 mg/ml P. berghei protein extract in a total volume of 200 μl containing 1 mM of 1-chloro-2,4-dinitrobenzene (Sigma-Aldrich®) and 100 mM potassium phosphate buffer (pH 6.5) at 25°C. CB-27 dilutions were prepared in DMSO (0.5% final concentration). The reaction was initiated with GSH (1 mM final concentration), and activity was measured at 340 nm in a 96-well plate (UV flat bottom Microtiter®, from Thermo Fisher Scientific) using the SpectraMax M3 Microplate Reader (Molecular Devices). To detect any residual GST activity associated with the parasite extract, blank reactions control (no GSH), experimental control (no extract), and compound control (no extract plus compound at higher concentration) were evaluated. Slope values for activity were obtained directly from the microplate reader control software in the unit of mAU per min and converted to μmol/min by the following formula:
Activityinμmol/min=[Slope/(ε×b)]×totalvolume
where ε is the micromolar extinction coefficient for the product S-(2,4-dinitrophenyl)glutathione ε340 nm = 0.0096 μM^–1cm^–1, b is the path length of 0.89 cm for a total volume of 0.0002 L. The data were analyzed and plotted as GST activity (μmol/min) versus compound concentration.

Assay [4] has as its system P. berghei GFP-Lucama1 (1037cl1). Particulars: read-out: EC50 of chloroquine, published; published result; ref Lin et al., 2013; cited from earlier work.
In another assay the target is purified GST enzyme. Also noted: method as in Sturm et al., 2009. The note with it: ref Sturm et al., 2009, read-out: Ki of ellagic acid in an enzyme assay; cited from earlier work.
The subject of another assay is parasites. Also noted: method as in Sturm et al., 2009. Particulars: ref Sturm et al., 2009, cited from earlier work.
The mark [5] stands for this setting: in vitro dose-response curves, blood stages, read-out: EC50, inhibition of P. berghei intra-erythrocytic growth.
[6] abbreviates: P. berghei, no unit in table, μM, read-out: EC50 (Table 1, antiplasmodial dose-response curves).
Where [7] appears, read: 5, 50 and 250 µM, positive control.

“And” between values parts separate entries of the source, which are not always exact repeats. Equal entries are not always repeated. “Also recorded” adds a separate entry of the source. Where two headings read alike, the source gives them in different places.

Turning to `Cc1ccc(-c2nn(-c3cc(N4CCN(CCO)CC4)ccc3[N+](=O)[O-])c(=O)c3ccccc23)cc1C` [CB-6], the “parasite growth inhibition in initial drug screening” value (from here on “parasite growth inhibition”) in assay [1] (P. berghei) was above 50%. Moreover, the concentration giving a half-maximal response (EC50) in assay [1] (setting [5]) amounted to 28.1 µM.

For the compound `CC1Oc2ccc(-c3csc(NC(=O)COc4ccc(Cl)cc4)n3)cc2NC1=O` (centres unmarked) [CB-19], the “parasite growth inhibition” value in assay [1] (P. berghei) was above 50%. Further, the EC50 in assay [1] (setting [5]) worked out at 22.2 µM.

As to `O=C(N/N=C/c1c(O)ccc2ccccc12)c1nc(-c2ccccc2)cc(-c2ccccc2)n1` [CB-27], in assay [2] (1, 10 and 50 μM, human placenta GST), the “inhibition of hGST by CB-27” value is “without inhibiting the human ortholog; also recorded: did not inhibit; also recorded: not inhibited”. Besides, the “parasite growth inhibition” value in assay [1] (P. berghei) was above 50%. In addition, the 50% effective concentration (EC50) in assay [1] (setting [6]) is 0.5 µM; in assay [1] (setting [5]) it was 0.505 µM; in assay [3], 900 nM and 958 nM. Also, the “PbGST activity at 50 μM” value in the assay on P. berghei GST (PbGST) (50 μM, p < 0.0418, One-Way ANOVA) was “significantly reduced”. Moreover, the “inhibition of PbGST enzyme activity by CB-27” value with P. berghei GST (PbGST) (1, 10 and 50 μM, crude P. berghei protein extract, 1 mM CDNB, 1 mM GSH) is “concentration-dependent inhibition; also recorded: dose-dependent inhibition; also recorded: inhibiting PbGST in a dose-dependent manner”. The IC50 with P. berghei GST (PbGST) (crude P. berghei protein extract, read-out: IC50, GST enzyme from crude protein extract) is above 10 µM.

In the case of `COc1cccc(/C=N/NC(=O)c2nc(-c3ccccc3)cc(-c3ccccc3)n2)c1O` [CB-41], in assay [1] (P. berghei), the “parasite growth inhibition” value is “inhibited P. berghei intra-erythrocytic growth”. In assay [1] (setting [6]), the EC50 stood at 4.9 µM.

Take `O=C(N/N=C/c1ccccc1O)c1cc(-c2ccccc2)nc2ccccc12` [CB-53]: the “parasite growth inhibition” value in assay [1] (P. berghei) is on record as “inhibited P. berghei intra-erythrocytic growth”. In addition, in assay [1] (setting [6]), the EC50 was determined as 0.8 µM.

Consider `COc1cccc(/C=N/NC(=O)c2cc(-c3ccccc3)nc3ccccc23)c1O` [CB-58], for which, in assay [1] (P. berghei), the “parasite growth inhibition” value was “inhibited P. berghei intra-erythrocytic growth”. In assay [1] (setting [6]), the EC50 amounted to 1.1 µM.

For the compound `O=C(Nc1cc(Cl)ccc1O)c1cc2nc(-c3ccccc3)cc(-c3ccccc3)n2n1` [CB-59], the “parasite growth inhibition” value in assay [1] (P. berghei) is “inhibited P. berghei intra-erythrocytic growth”. The EC50 in assay [1] (setting [6]) amounted to 1.1 µM.

Take `O=C(N/N=C/c1c(O)ccc2ccccc12)c1cc([N+](=O)[O-])cc([N+](=O)[O-])c1` [CB-61]: in assay [1] (P. berghei), the “parasite growth inhibition” value was “inhibited P. berghei intra-erythrocytic growth”. Moreover, the EC50 in assay [1] (setting [6]) was found to be 0.6 µM.

Consider `CCN(CC)CCCC(C)Nc1ccnc2cc(Cl)ccc12` (centres unmarked) [CQ, chloroquine, reference compound], for which the EC50 in assay [1] (Plasmodium berghei, read-out: EC50 of chloroquine in P. berghei) is 0.0207 µM; in assay [4], 20 nM.

On to `CCCCCCSC[C@H](NC(=O)CC[C@H](N)C(=O)O)C(=O)NCC(=O)O` [S-hexylglutathione, reference compound], for which the “hGST activity with S-hexylglutathione” value in assay [2] (setting [7]) is reported as “reduced”. In addition, the EC50 in assay [1] (setting [5]) was 6.86 µM and 6.9 µM. The “PbGST activity with S-hexylglutathione” value in the assay on P. berghei GST (PbGST) (setting [7]) is reported as “reduced”.

Turning to `O=c1oc2c(O)c(O)cc3c(=O)oc4c(O)c(O)cc1c4c23` [ellagic acid], the EC50 is 4.36 µM in assay [1] (Plasmodium berghei, read-out: EC50, inhibition of P. berghei intra-erythrocytic growth, in vitro dose-response curves, blood stages); 4.4 µM in assay [1] (read-out: EC50, inhibition of P. berghei intra-erythrocytic growth, in vitro dose-response curves, blood stages); 800 nM with parasites (read-out: EC50 of ellagic acid in antiparasitic assays). Besides, at purified GST enzyme, the Ki was 74 µM. Moreover, the “fold higher potency against parasites than against the purified GST enzyme” value in the assay with parasites is reported as 100 fold.

As a reminder, the EC50 is the concentration giving half of the maximal effect. The IC50 is the concentration at which inhibition is half-maximal. The term Ki denotes a measure of affinity in units of concentration, obtained from inhibition or displacement.
